{"source": "patent US5314998A", "about": "“Organic solvent-soluble metal-azo and metal-azomethine dyes” (Minnesota Mining and Manufacturing Company, priority 1992, dated 1994)", "key": {"[1]": {"conditions": "reported to decompose, apparently without melting; cited from earlier work"}, "[2]": {"assay": "Thermogravimetric analysis, loss of pyridine ligand", "type": "physicochemical"}, "[3]": {"assay": "Differential Scanning Calorimeter scan, melting behaviour", "conditions": "Differential Scanning Calorimeter scan of analytically pure compound", "quoted_text": "Melting points of the metal complexes were determined using a Thomas-Hoover melting point apparatus or by differential scanning calorimetry at a heating rate of 5° C. per minute."}, "[4]": {"assay": "Solubility in heptane (absorbance at maximum of saturated solution), chromium metal-azo complexes", "type": "physicochemical", "conditions": "room temperature (22° C.)", "protocol": "The samples were prepared by shaking the dye in heptane for several hours, allowing the samples to sit overnight, and filtering through a plug of glass wool to remove particulates."}, "[5]": {"assay": "Solubility in heptane (absorbance at maximum), four-coordinate platinum metal-azo complexes", "type": "physicochemical", "conditions": "ambient temperature", "from_the_text": "^b result obtained by measuring in a 1 cm cell and dividing result by\n^c estimate based on fitting the spectrum in the 510-550 nm region."}}}
{"compound": "[Cu+2].[O-]c1ccccc1N=Nc1ccccc1[O-].c1ccncc1", "note": "[Compound 8, [[2,2-azobis[phenolato]](-2)-N,O,O](pyridine)copper]", "values": [{"measurement": "decomposition temperature", "setting": "[1]", "result": 310, "unit": "°C"}, {"measurement": "Temperature of 50% Loss of Pyridine Ligand", "setting": "[2]", "result": 133, "unit": "°C"}]}
{"compound": "CCCCC(CCCC)c1ccncc1.[Cu+2].[O-]c1ccccc1N=Nc1ccccc1[O-]", "note": "[Compound 9, [[2,2-azobis[phenolato]](-2)-N,O,O](4-(5-nonylpyridine))copper]", "values": [{"measurement": "DSC melting behaviour", "setting": "[3]", "result": "has a classic melting transition associated with organic-like compounds"}, {"measurement": "Temperature of 50% Loss of Pyridine Ligand", "setting": "[2]", "result": 148, "unit": "°C"}]}
{"compound": "CCCCC(CCCC)c1ccncc1.CCCCN(CCCC)S(=O)(=O)c1ccc([O-])c(N=Nc2c([O-])ccc3ccccc23)c1.[Cu+2]", "note": "[Compound 11, [1-[5-N,N-dibutylsulfonamido-2-hydroxyphenyl]azo-2-naphthalenolato(-2)](4-(5-nonylpyridine))copper]", "values": [{"measurement": "DSC melting behaviour", "setting": "[3]", "result": "has a classic melting transition associated with organic-like compounds"}, {"measurement": "Temperature of 50% Loss of Pyridine Ligand", "setting": "[2]", "result": 223, "unit": "°C"}]}
{"compound": "CC(=O)[CH-]C(C)=O.[Cr+3].[O-]c1ccccc1N=Nc1ccccc1[O-].c1ccncc1", "note": "[Compound 28, [[2,2-azobis[phenolato]](-2)-N,O,O](pyridine)(2,4-pentanedionato-O,O)chromium]", "values": [{"measurement": "Absorbance at Maximum in Heptane/1 mm Cell", "setting": "[4]", "result": 0.022}]}
{"compound": "CC(=O)C=C(C)[O-].CCc1ccncc1.[Cr+3].[O-]c1ccccc1N=Nc1ccccc1[O-]", "note": "[Compound 31, [[2,2-azobis[phenolato]](-2)-N,O,O](2,4-pentanedionato-O,O)(4-ethylpyridine)chromium]", "values": [{"measurement": "Absorbance at Maximum in Heptane/1 mm Cell", "setting": "[4]", "result": 0.644}]}
{"compound": "CC(=O)C=C(C)[O-].CCOC(=O)c1cccnc1.[Cr+3].[O-]c1ccccc1N=Nc1ccccc1[O-]", "note": "[Compound 32, [[2,2-azobis[phenolato]](-2)-N,O,O](2,4-pentanedionato-O,O)(ethyl nicotinate)chromium]", "values": [{"measurement": "Absorbance at Maximum in Heptane/1 mm Cell", "setting": "[4]", "result": 0.362}]}
{"compound": "[O-]c1ccccc1N=Nc1ccccc1[O-].[Pt+2].c1ccncc1", "note": "[Pt(DHAB)Py, [[2,2azobis[phenolato]](2)-N,O,O](pyridine)platinum, reference compound]", "values": [{"measurement": "Absorbance at Maximum in Heptane/1 mm Cell", "setting": "[5]", "result": 0.41}]}
{"compound": "[1-[5-N,N-dibutylsulfonamido-2-hydroxyphenyl]azo-2-naphthalenolato(-2)](pyridine)copper [Compound 10]", "values": [{"measurement": "DSC melting behaviour", "setting": "[3]", "result": "does not exhibit a clean melt"}, {"measurement": "Temperature of 50% Loss of Pyridine Ligand", "setting": "[2]", "result": 180, "unit": "°C"}]}
{"compound": "[[2,2-azobis[phenolato]](-2)-N,O,O](2,4-pentanedionato-O,O)(ethyl isonicotinate)chromium [Compound 33]", "values": [{"measurement": "Absorbance at Maximum in Heptane/1 mm Cell", "setting": "[4]", "result": 0.634}]}
{"compound": "[[2,2-azobis[phenolato]](-2)-N,O,O](4-n-octylpyridine)platinum [Compound 17]", "values": [{"measurement": "Absorbance at Maximum in Heptane/1 mm Cell", "setting": "[5]", "result": 2.49}]}
